The subject of the assay is human erythrocytes. As to the kind of experiment: Hemolysis assay. In kind it is cell-based. Particulars: for Hemolysis IC50: human erythrocytes, 4 h at 37 °C, value in brackets; for IC50: red cells of human, 4 h. How it is done: Commercially available human blood (IWB1K2E10ML, Innovative Research Inc., Novi, MI, USA) was used to produce a 50% haematocrit solution by mixing at 1:1 with PBS 1× (P5493, 1 L, Sigma, St. Louis, MO, USA). Three consecutive PBS 1× washes plus centrifugation at 2600 rpm for 10 min steps were performed. Finally, a 2% erythrocyte solution was prepared in PBS 1× and chilled on ice until used. Polypropylene plates were filled with 50 µL PBS 1× per well for the samples and 50 µL 2% Triton X-100 (TX-100, 9002-93-1, 100 mL, Sigma, St. Louis, MO, USA) for the hemolysis controls. A solution at 4× final concentration of the assay of each peptide was prepared in PBS and 50 µL were added to the first column of each plate, followed by serial dilutions in the microplate. Then, 50 µL of the 2% erythrocyte solution was added to each plate. […] controls consisted in a 1:1 mix of PBS 1× and erythrocytes at 2%. Plates were incubated at 37 °C for 4 h and then centrifuged at 1500 rpm for 5 min. Eighty µL were extracted from the supernatant of each well carefully and transferred to a polystyrene flat bottom plate for reading and read at 450 nm in an Epoch microplate spectrophotometer (Epoch™, BioTek, Winooski, VT, USA).
The therapeutic index is a widely accepted parameter to represent the specificity of antimicrobial peptides for prokaryotic versus eukaryotic cells. It is calculated by the ratio of HC50 (hemolytic activity) and MIC (antimicrobial activity); thus, larger values of therapeutic index indicate greater specificity for prokaryotic cells.

Square brackets hold non-standard residues; d marks the D form. Peptide text beside a SMILES is read from it.

In the case of “H-GLRKRLRKFRNKIKEKLKKIGQKIQGLLPKL-OH [CAP-18_31]”, the “Hemolysis IC50” value stood at 690.97 µg/mL and the IC50 came to 185 µM.
On the same counts, the results for `CC[C@@H](C)[C@@H](NC(=O)[C@@H](CCCCN)NC(=O)[C@@H](CCCCN)NC(=O)[C@@H](CC(C)C)NC(=O)[C@@H](CCCCN)NC(=O)[C@@H](CCC(=O)O)NC(=O)[C@@H](CCCCN)NC(=O)[C@H](NC(=O)[C@@H](CCCCN)NC(=O)[C@@H](CC(N)=O)NC(=O)[C@@H](CCCNC(=N)N)NC(=O)[C@@H](Cc1ccccc1)NC(=O)[C@@H](CCCCN)NC(=O)[C@@H](CCCNC(=N)N)NC(=O)[C@@H](CC(C)C)NC(=O)[C@@H](CCCNC(=N)N)NC(=O)[C@@H](CCCCN)NC(=O)[C@@H](CCCNC(=N)N)NC(=O)[C@@H](CC(C)C)NC(=O)CN)[C@H](C)CC)C(=O)NCC(=O)N[C@H](CCC(N)=O)C(=O)N[C@H](CCCCN)C(=O)N[C@@H](C(=O)N[C@H](CCC(N)=O)C(=O)NCC(=O)N[C@H](CC(C)C)C(=O)N[C@H](CC(C)C)C(=O)N1CCC[C@@H]1C(=O)N[C@H](CCCCN)C(=O)N[C@H](CC(C)C)C(=O)O)[C@H](C)CC` [D-CAP-18_31, Glrkrlrkfrnkikeklkkigqkiqgllpkl] (H-G[dL][dR][dK][dR][dL][dR][dK][dF][dR][dN][dK][dI][dK][dE][dK][dL][dK][dK][dI]G[dQ][dK][dI][dQ]G[dL][dL][dP][dK][dL]-OH) are 404.48 µg/mL and 108 µM.

The IC50 is the concentration needed to halve the response being measured. The low end stands for greater potency, the high end for weaker potency.

The record behind these values is article PMC12382740, “In Vitro and In Vivo Characterization of Novel Cathelicidin-Based Peptides with Antimicrobial Activity Against Pseudomonas aeruginosa” (Antibiotics, 2025).
